Test results taken from ChEMBL document CHEMBL5726441, “Isoindolone derivatives” (2017).

target: Bromodomain-containing protein 4 (Homo sapiens, UniProt O60885); experiment: TR-FRET Assay: Compound dilution series were prepared in DMSO via a 3-fold serial dilution from 2.5 mM to 42 nM. Compounds were then diluted 6:100 in assay buffer (20 mM Sodium Phosphate, pH 6.0, 50 mM NaCl, 1 mM EDTA, 0.01% Triton X-100, 1 mM DTT) to yield 3× working solutions. Six microliters (μL) of the working solution was then transferred to white, low-volume assay plates (Costar #3673). A 1.5× assay mixture containing His-tagged bromodomain, Europium-conjugated anti-His antibody (Invitrogen PV5596) and the Alexa-647-conjugated probe molecule was also prepared. Twelve μL of this solution were added to the assay plate to reach a final volume of 18 μL. The final concentration of 1× assay buffer contains 2% DMSO, 50 μM−0.85 nM compound, 8 nM bromodomain, 1 nM antibody and 100 or 30 nM probe (for BDI or BDII, respectively). After a one-hour incubation at room temperature, TR-FRET ratios were determined using an Envision multilabel plate reader (Ex 340, Em 495/520).TR-FRET data were normalized to the means of 24 no-compound controls (high) and 8 controls containing 1 μM un-labeled probe (low). Percent inhibition was plotted as a function of compound concentration and the data were fit with the 4 parameter logistic equation to obtain IC50s Inhibition constants (Ki) were calculated from the IC50s, probe Kd and probe concentration. Typical Z′ values were between 0.65 and 0.75. The minimum significant ratio was determined to evaluate assay reproducibility (Eastwood et al., (2006) J Biomol Screen, 11: 253-261).

In order of rising Ki:
1. Cc1[nH]c(-c2cccc3ccccc23)c2c1C(=O)CCC2  0.943 µM
2. Cc1[nH]c(-c2ccccc2Oc2ccccc2)c2c1C(=O)CC(CC(C)C)C2 (stereo not drawn)  3.62 µM
3. Cc1[nH]c(-c2ccccc2CN2C(=O)c3ccccc3C2=O)c2c1C(=O)CCC2  6.22 µM
